Structures are written as SMILES.

In this assay the test system is pAMPK. The assay can be described thus: pAMPK immunostaining chemiluminescence assay in Beas2B cells. It counts as cell-based. The following applies: Homo sapiens, BEAS-2B, 18 h, DMEM no glucose media, compounds 3-34, 36-44, 47-60 tested as HCl salts, read-out: efficacy (minimal compound concentration needed to increase pAMPK by 30%). The method, then:
Beas2B cells were plated in 384 white nunc plate (4000 cells per well) for overnight. Compounds were serially diluted in DMEM no glucose media using the liquid handler. Cells were washed once using Biotek EL406 before compound addition for additional 18 hours. Cells were washed and fixed with PFA before immunostained with pAMPK primary antibody and anti-Rabbit HRP secondary antibody. Finally, 25 μl of ECL reagent will be added to cells, and chemical luminescence signal will be counted using plate reader. Compounds efficacies (μM) were determined by the minimal compound concentration needed to increase pAMPK by 30%. Activity: “+” equals >10 μM; “++” equals between ≤10 μM and >1 μM; and “+++” equals ≤1 μM.
As for `O[C@@H](COc1ccc(C(F)(F)F)cc1)CN(Cc1ccccc1)Cc1ccccc1` [compound 1], the EC (30% increase) is 1 to 10 µM.
As for `O[C@H](COc1ccc(C(F)(F)F)cc1)CN(Cc1ccccc1)Cc1ccccc1` [compound 2], the figure is 1 to 10 µM.
The same measure for `OC(COc1ccc(C(F)(F)F)cc1)CN(CC1CCCCC1)CC1CCCCC1` (centres unmarked) [compound 3]: 1 to 10 µM; for `Cc1ccccc1CN(Cc1ccccc1C)CC(O)COc1ccc(C(F)(F)F)cc1` (centres unmarked) [compound 4]: ≤ 1 µM.
As for `Cc1ccccc1CN(Cc1ccccc1)CC(O)COc1ccc(C(F)(F)F)cc1` (centres unmarked) [compound 5], the figure is 1 to 10 µM.
On to `OC(COc1ccc(C(F)(F)F)cc1)CN(CCc1ccccc1)Cc1ccccc1` (centres unmarked) [compound 6], for which the EC (30% increase) lay in the range of 1 to 10 µM.
As for `OC(COc1ccc(C(F)(F)F)cc1)CN(Cc1cccnc1)Cc1cccnc1` (centres unmarked) [compound 7], the figure is ≤ 1 µM.
With `Cc1ccccc1CN(Cc1cccnc1)CC(O)COc1ccc(C(F)(F)F)cc1` (centres unmarked) [compound 8], the EC (30% increase) is ≤ 1 µM.
As for `OC(COc1cccnc1)CN(Cc1ccccc1)Cc1ccccc1` (centres unmarked) [compound 9], the figure is > 10 µM; as for `OC(COc1ccccn1)CN(Cc1ccccc1)Cc1ccccc1` (centres unmarked) [compound 10], 1 to 10 µM.
As for `CN(CC(O)COc1ccc(C(F)(F)F)cc1)CC(c1ccccc1)c1ccccc1` (centres unmarked) [compound 11], the figure is 1 to 10 µM; as for `CC(CNCC(O)COc1ccc(C(F)(F)F)cc1)(c1ccccc1)c1ccccc1` (centres unmarked) [compound 12], 1 to 10 µM; as for `OC(COc1ccc(C(F)(F)F)cc1)CN(Cc1ccccc1)Cc1cncnc1` (centres unmarked) [compound 13], ≤ 1 µM.
As for `OC(CNCC(c1ccccc1)c1ccccc1)COc1ccc(C(F)(F)F)cc1` (centres unmarked) [compound 14], the figure is > 10 µM.
On to `OC(COc1ncccn1)CN(Cc1ccccc1)Cc1ccccc1` (centres unmarked) [compound 15], for which the EC (30% increase) was > 10 µM.
As for `OC(COc1cncnc1)CN(Cc1ccccc1)Cc1ccccc1` (centres unmarked) [compound 16], the figure is 1 to 10 µM.
As for `OC(COc1ccncc1)CN(Cc1ccccc1)Cc1ccccc1` (centres unmarked) [compound 17], the EC (30% increase) was > 10 µM.
The same measure for `Cc1cccc(C)c1OCC(O)CN(Cc1ccccc1)Cc1ccccc1` (centres unmarked) [compound 18]: ≤ 1 µM; for `OC(COc1ccc(C(F)(F)F)cc1)CN1Cc2ccccc2C1` (centres unmarked) [compound 19]: > 10 µM.
Take `OC(COc1ccc(C(F)(F)F)cc1)CN1Cc2ccccc2CC1c1ccccc1` (centres unmarked) [compound 20]: the EC (30% increase) lay in the range of 1 to 10 µM.
With `OC(COc1ccc(C(F)(F)F)cc1)CN1Cc2ccccc2C1c1ccccc1` (centres unmarked) [compound 22], the EC (30% increase) fell in the range of 1 to 10 µM.
The same measure for `Cc1ccccc1CN(Cc1cncnc1)CC(O)COc1ccc(C(F)(F)F)cc1` (centres unmarked) [compound 23]: ≤ 1 µM; for `Cc1ccccc1CN(Cc1cccnc1)CC(O)COc1ccc(C(F)(F)F)cn1` (centres unmarked) [compound 24]: > 10 µM.
The same measure for `OC(COc1ccc(C(F)(F)F)cc1)CN(Cc1cccnc1)Cc1ccccc1Cl` (centres unmarked) [compound 25]: ≤ 1 µM; for `Cc1ncccc1CN(Cc1ccccc1)CC(O)COc1ccc(C(F)(F)F)cc1` (centres unmarked) [compound 26]: ≤ 1 µM; for `Cc1ccncc1CN(Cc1ccccc1)CC(O)COc1ccc(C(F)(F)F)cc1` (centres unmarked) [compound 27]: ≤ 1 µM.
As for `Cc1ncccc1CN(Cc1cccnc1)CC(O)COc1ccc(C(F)(F)F)cc1` (centres unmarked) [compound 28], the figure is ≤ 1 µM; as for `Cc1ccncc1CN(Cc1cccnc1)CC(O)COc1ccc(C(F)(F)F)cc1` (centres unmarked) [compound 29], ≤ 1 µM; as for `Cc1ncccc1CN(Cc1cccnc1C)CC(O)COc1ccc(C(F)(F)F)cc1` (centres unmarked) [compound 30], 1 to 10 µM.
Consider `Cc1ccncc1C1OC(COc2ccc(C(F)(F)F)cc2)CN1Cc1cccnc1` (centres unmarked) [compound 31], for which the EC (30% increase) was 1 to 10 µM.
As to `Cc1ccncc1CN(Cc1cccnc1C)CC(O)COc1ccc(C(F)(F)F)cc1` (centres unmarked) [compound 32], the EC (30% increase) is ≤ 1 µM.
As for `Cc1ccncc1CN(Cc1cnccc1C)CC(O)COc1ccc(C(F)(F)F)cc1` (centres unmarked) [compound 33], the figure is 1 to 10 µM; as for `O=C(CCOc1ccc(C(F)(F)F)cc1)N(Cc1ccccc1)Cc1ccccc1` [compound 35], 1 to 10 µM.
For the compound `Cc1ccccc1CN(Cc1ncc[nH]1)CC(O)COc1ccc(C(F)(F)F)cc1` (centres unmarked) [compound 36], the EC (30% increase) is ≤ 1 µM.
With `Cc1ccccc1CN(Cc1cc[nH]n1)CC(O)COc1ccc(C(F)(F)F)cc1` (centres unmarked) [compound 37], the EC (30% increase) lay in the range of 1 to 10 µM.
Take `Cc1ccccc1CN(Cc1cnn(C)c1)CC(O)COc1ccc(C(F)(F)F)cc1` (centres unmarked) [compound 38]: the EC (30% increase) lay within 1 to 10 µM.
The same measure for `Cc1ccccc1CN(Cc1cnc[nH]1)CC(O)COc1ccc(C(F)(F)F)cc1` (centres unmarked) [compound 39]: 1 to 10 µM; for `Cc1ccccc1CN(Cc1cncs1)CC(O)COc1ccc(C(F)(F)F)cc1` (centres unmarked) [compound 40]: ≤ 1 µM; for `OC(COc1ccc(C(F)(F)F)cc1)CN(Cc1ccncc1)Cc1ccncc1` (centres unmarked) [compound 41]: 1 to 10 µM.
As for `OC(COc1ccc(C(F)(F)F)cc1)CN(Cc1ccccn1)Cc1ccccn1` (centres unmarked) [compound 42], the figure is ≤ 1 µM.
As for `OC(COc1ccc(C(F)(F)F)cc1)CN(Cc1ccccc1)Cc1cccnc1` (centres unmarked) [compound 43], the figure is ≤ 1 µM; as for `Cc1ccccc1CN(Cc1ccc(C(F)(F)F)nc1)CC(O)COc1ccc(F)cc1` (centres unmarked) [compound 44], ≤ 1 µM.
On to `Cc1ccccc1CN(CC(O)COc1ccc(C(F)(F)F)cc1)C(=O)c1cccnc1` (centres unmarked) [compound 45], for which the EC (30% increase) was ≤ 1 µM.
As for `CC(c1cccnc1)N(Cc1ccccc1)CC(O)COc1ccc(C(F)(F)F)cc1` (centres unmarked) [compound 46], the figure is ≤ 1 µM; as for `[2H]C([2H])(c1cccnc1)N(Cc1ccccc1)CC(O)COc1ccc(C(F)(F)F)cc1` (centres unmarked) [compound 47], ≤ 1 µM.
In the case of `OC(COc1ccc(C(F)(F)F)cc1)CN(Cc1ccccc1)C1(c2cccnc2)CC1` (centres unmarked) [compound 48], the EC (30% increase) is ≤ 1 µM.
As for `Cc1ccccc1CN(Cc1cccc(C(N)=O)c1)CC(O)COc1ccc(C(F)(F)F)cc1` (centres unmarked) [compound 49], the figure is 1 to 10 µM.
The same measure for `Cc1ccccc1CN(Cc1cccc(C#N)c1)CC(O)COc1ccc(C(F)(F)F)cc1` (centres unmarked) [compound 50]: > 10 µM.
As for `Cc1ccccc1CN(Cc1ccc[n+]([O-])c1)CC(O)COc1ccc(C(F)(F)F)cc1` (centres unmarked) [compound 51], the figure is 1 to 10 µM; as for `Cc1ccccc1CN(CCc1ccccn1)CC(O)COc1ccc(C(F)(F)F)cc1` (centres unmarked) [compound 52], 1 to 10 µM.
Turning to `Cc1ccccc1CN(CC(O)COc1ccc(C(F)(F)F)cc1)c1cccc2ncccc12` (centres unmarked) [compound 54], the EC (30% increase) was 1 to 10 µM.
As for `Cc1ccccc1CN(CC(O)COc1ccc(C(F)(F)F)cc1)c1cccnc1` (centres unmarked) [compound 55], the figure is 1 to 10 µM; as for `OC(COc1ccc(C(F)(F)F)cc1)CN1Cc2ccccc2CC1c1cccnc1` (centres unmarked) [compound 56], ≤ 1 µM.
The same measure for `OC(COc1ccc(C(F)(F)F)cc1)CC1=Nc2ccccc2CC1c1cccnc1` (centres unmarked) [compound 57]: 1 to 10 µM; for `Cc1ccccc1CN(Cc1ccc(=O)[nH]c1)CC(O)COc1ccc(C(F)(F)F)cc1` (centres unmarked) [compound 59]: 1 to 10 µM; for `c1ccc(CN(CCCOc2ccccc2)Cc2ccccc2)cc1` [compound 61]: 1 to 10 µM.
The same measure for `O=C(CCOc1ccc(C(F)(F)F)cc1)N1Cc2ccccc2CC1c1cccnc1` (centres unmarked) [compound 62]: 1 to 10 µM; for `Cc1ccccc1CN(Cc1cccnc1)C(=O)CCOc1ccc(C(F)(F)F)cc1` [compound 64]: 1 to 10 µM.
Regarding `FC(F)(F)c1ccc(OCCCN2Cc3ccccc3CC2c2cccnc2)cc1` (centres unmarked) [compound 65], the EC (30% increase) is ≤ 1 µM.
For `Cc1ccccc1CN(CC(O)COc1ccc(C(F)(F)F)cc1)C(=O)c1ccccc1` (centres unmarked) [compound 66], the EC (30% increase) was ≤ 1 µM.
The same measure for `Cc1ccc(C(=O)N(Cc2ccccc2C)CC(O)COc2ccc(C(F)(F)F)cc2)cc1` (centres unmarked) [compound 67]: ≤ 1 µM; for `Cc1ccccc1CN(CC(O)COc1ccc(C(F)(F)F)cc1)S(=O)(=O)c1cccnc1` (centres unmarked) [compound 68]: ≤ 1 µM.
As for `Cc1ccccc1CN(Cc1c[nH]cn1)CC(O)COc1ccc(C(F)(F)F)cc1` (centres unmarked) [compound 69], the figure is ≤ 1 µM; as for `Cc1ccccc1CN(Cc1nccs1)CC(O)COc1ccc(C(F)(F)F)cc1` (centres unmarked) [compound 70], ≤ 1 µM; as for `Cc1ccccc1CN(Cc1sccc1C)CC(O)COc1ccc(C(F)(F)F)cc1` (centres unmarked) [compound 71], 1 to 10 µM.
As for `Cc1ccccc1CN(Cc1nccn1C)CC(O)COc1ccc(C(F)(F)F)cc1` (centres unmarked) [compound 72], the figure is ≤ 1 µM; as for `Cc1ccccc1CN(Cc1c[nH]nc1-c1ccccc1)CC(O)COc1ccc(C(F)(F)F)cc1` (centres unmarked) [compound 73], 1 to 10 µM.
With `Cc1ccccc1CN(CC(O)COc1ccc(C(F)(F)F)cc1)C(=O)c1c[nH]cn1` (centres unmarked) [compound 74], the EC (30% increase) lay in the range of 1 to 10 µM.
The same measure for `Cc1ccccc1CN(CC(O)COc1ccc(C(F)(F)F)cc1)C(=O)c1cc[nH]n1` (centres unmarked) [compound 75]: 1 to 10 µM; for `Cc1ccccc1CN(CC(O)COc1ccc(C(F)(F)F)cc1)C(=O)c1cn[nH]c1` (centres unmarked) [compound 76]: 1 to 10 µM.
The same measure for `Cc1ccccc1CN(CC(O)COc1ccc(C(F)(F)F)cc1)C(=O)c1ncc[nH]1` (centres unmarked) [compound 77]: 1 to 10 µM.

Values taken from patent US12428378B2, “Methods and materials for increasing level of phosphorylated AMPK protein” (University of Pittsburgh—Of the Commonwealth System of …, priority 2019, dated 2025).
